Source: patent US8440842B2, “Antimicrobial compounds, their synthesis and their use for treatment of mammalian infections” (Leibniz-Institut fuer Naturstoff-Forschung und …, priority 2007, dated 2013)
In brackets after ≈: the same amount, converted by molar mass.

How the values were obtained:
[1] = tested on: XTB strain (extremly resistant clinical isolate); assay: MIC and MBC, classical method (liquid Shkolnikova medium, Lowenstein-Jensen medium); assay type: cell-based, Mycobacterium tuberculosis
[2] = tested on: HSRE resistant strain (multiresistant clinical isolate); assay: as above; assay type: cell-based, Mycobacterium tuberculosis

Q: With `CN(Cc1ccccc1)c1nc(=O)c2cc(C(F)(F)F)cc([N+](=O)[O-])c2s1` [Compound 5, 2-[Benzyl(methyl)amino]-8-nitro-6-(trifluoromethyl)-4H-1,3-benzothiazin-4-one] as the compound, how does the MBC ([1]; Mycobacterium tuberculosis) read?
A: Its MBC is 3.12 µg/mL (≈ 7.89 µM).

Q: And the MIC ([1]; Mycobacterium tuberculosis)?
A: Its MIC is 1.56 µg/mL (≈ 3.95 µM).

Q: What about the MBC ([2]; Mycobacterium tuberculosis) of the same compound?
A: Its MBC is 3.12 µg/mL (≈ 7.89 µM).

Q: And the MIC ([2]; Mycobacterium tuberculosis)?
A: The MIC was 1.56 µg/mL (≈ 3.95 µM).

Q: How did the MBC ([1]; Mycobacterium tuberculosis) turn out when `O=c1nc(NCc2ccccc2)sc2c([N+](=O)[O-])cc(C(F)(F)F)cc12` [Compound 8, 2-(Benzylamino)-8-nitro-6-(trifluoromethyl)-4H-1,3-benzothiazin-4-one] was run?
A: The MBC was 1.56 µg/mL (≈ 4.09 µM).

Q: What about the MIC ([1]; Mycobacterium tuberculosis) of the same compound?
A: The MIC was 0.78 µg/mL (≈ 2.05 µM).

Q: What about the MBC ([2]; Mycobacterium tuberculosis) of the same compound?
A: Its MBC is 1.56 µg/mL (≈ 4.09 µM).

Q: What about the MIC ([2]; Mycobacterium tuberculosis) of the same compound?
A: The MIC was 0.78 µg/mL (≈ 2.05 µM).

Q: Which MBC ([1]; Mycobacterium tuberculosis) does the source give for `CN(Cc1ccccc1)c1nc(=O)c2cc(Cl)cc([N+](=O)[O-])c2s1` [Compound 10, 2-[Benzyl(methyl)amino]-6-chloro-8-nitro-4H-1,3-benzothiazin-4-one] here?
A: The MBC was 0.39 µg/mL (≈ 1.08 µM).

Q: And the MIC ([1]; Mycobacterium tuberculosis)?
A: Its MIC is less than 0.39 µg/mL.

Q: What about the MBC ([2]; Mycobacterium tuberculosis) of the same compound?
A: The MBC was 1.56 µg/mL (≈ 4.31 µM).

Q: What about the MIC ([2]; Mycobacterium tuberculosis) of the same compound?
A: The MIC was 1.56 µg/mL (≈ 4.31 µM).

Q: `NNC(=O)c1ccncc1` [Isoniazid (INH), Isoniazid, reference compound] was tested. Which MIC ([1]; X TB strain (extremly resistant)) did it give?
A: Its MIC is “Not active”.

Q: And the MIC ([2]; HSRE resistant strain (multiresistant))?
A: The MIC was “Not active”.
